Measurements as given in US7691905B2, “Inhibition of melanogenesis and melanoma metastasis with p-aminobenzoic acid (PABA)” (New York University, priority 2002, dated 2010).

Legend:
B16 melanoma cells [1] = experiment: Melanin secretion of B16 melanoma cells, colour of DMEM medium; format: cell-based; conditions: 0.1 mg/ml PABA in DMEM, seven days; unsupplemented medium turned brown
Method: The RPMI medium remained red due to the inhibition of melanin secretion. One of the major components in RPMI that is absent in DMEM is PABA. To assess the effect of PABA on melanin secretion from B16 cells, PABA was added to DMEM culture medium to achieve the same concentration as that found in the RPMI medium: 0.1 mg of PABA per milliliter of medium. Cells were grown in PABA-supplemented DMEM medium for seven days. The PABA-supplemented medium remained red, while the unsupplemented medium turned brown.

B16F10 melanoma cells [2] = experiment: In vivo xenograft study of PABA and radiation, B16F10 melanoma; set-up: species or system Balb/c nude mice; conditions: tumor volume after 15 days
Method: 1×10^6 B16F10 melanoma cells (cultured in the absence of PABA) were implanted subcutaneously into Balb/c nude mice. Intraperitoneal injections of PABA at a concentration of 50 mg/kg were started 3 days after implantation of the tumor cells and continued daily. Ten days following tumor cell implantation, mice were either not irradiated or were irradiated with 3 fractions of 3 Gy every other day for a total dose of 9 Gy.
After 15 days, the animals were sacrificed and the tumors were resected. The tumors were measured and their volumes were calculated.

[3] = test system: human G-361 melanoma cells; experiment: Human G-361 melanoma cell proliferation with ionizing radiation, direct cell counts; format: cell-based; conditions: 0.1 mg/ml PABA plus 20 Gy
Method: (§1) Cell proliferation was determined by direct cell counts.
The radiation-enhancing effect of PABA on melanoma observed in B16 melanoma cells was confirmed in the pigmented human melanoma cell line G-361 (ATCC Number CRL-1424, (1978) Pediatr Res 12:485.) The human G-361 melanoma cells are more resistant to radiation than B16 melanoma cells and thus require a higher dose of ionizing radiation to inhibit growth, compared to B16 cells. Human G-361 melanoma cells were treated with 20 Gy of radiation, either alone or in combination with 0.1 mg/ml PABA, as described in example 7.

B16 melanoma cells [4] = experiment: B16 melanoma experimental metastasis in chick embryo model; format: in vivo; conditions: cells grown with 0.1 mg/ml PABA for one to three weeks, injected into 12-day old chick embryos, 7-day incubation
Method: The number of melanoma metastases were measured by counting the number of metastatic lung tumor lesions present in lungs from sacrificed chick embryos. The effect of PABA on the aggressiveness and invasiveness of B16 melanoma was measured in a chick embryo model. (Brooks PC et al. (1994) Cell 79:1157-1164.) The effects of PABA on B16 experimental metastasis in vivo were evaluated to determine the role melanin synthesis plays in the aggressiveness and invasiveness of melanoma metastasis. B16 melanoma cells grown in the presence or absence of 0.1 mg/ml PABA for one to three weeks were injected into 12-day old chick embryos. At the end of a 7-day incubation period, the embryos were sacrificed and the number of metastatic lung tumor lesions were quantified.

B16 melanoma cells [5] = experiment: B16 melanoma cell proliferation with ionizing radiation, direct cell counts; format: cell-based; conditions: 0.1 mg/ml PABA plus single fraction dose of 10 Gy, 3-day incubation
Method: as §1
(Kinnaert E et al. (2000) Radiation Res 154:497-502.) Thus, blocking melanin synthesis or melanogenesis may cause melanoma cells to become much more sensitive to radiation therapy. To test the effect of PABA on the anti-proliferative effects of ionizing radiation, B16 melanoma cells grown in the presence or absence of 0.1 mg/ml PABA were treated with a single fraction dose of 10 Gy of ionizing radiation. Cell proliferation was monitored by direct cell counts over a 3-day incubation period.

[6] = test system: Lewis Lung Carcinoma (LLC) cells; experiment: Lewis Lung Carcinoma tumor growth assay on chick embryo CAM; format: in vivo; conditions: cells grown with 0.1 mg/ml PABA for 3 weeks, 7 days
Method: The effect of PABA on the growth of carcinoma tumors was tested using the Lewis Lung Carcinoma (LLC) tumor growth assay. (Mauceri H J et al. (2002) Cancer Chemother Pharmacol 50:412-418.) LLC cells were grown in DMEM medium in the presence or absence of 0.1 mg/ml PABA for 3 weeks. Cells were harvested and 2×10^6 cells from each group were inoculated in the CAMs of 10-day old chick embryos. The embryos were allowed to develop for a further seven days. At the end of the 7-day incubation period, the embryos were sacrificed and the tumors removed and wet weights determined.

[7] = test system: Lewis Lung Carcinoma (LLC) cells; experiment: Lewis Lung Carcinoma cell proliferation, direct cell counts; format: cell-based; conditions: 0.1 mg/ml PABA, DMEM, 48-hour incubation
Method: The anti-proliferative effect of PABA on carcinoma cells was tested on Lewis Lung Carcinoma (LLC) cells. (Young M R et al. (2003) Int J Cancer 103:38-44.) Cells were grown in DMEM medium in the presence or absence of 0.1 mg/ml PABA. Cell proliferation was monitored by direct cell counts over a 48-hour incubation period.

tyrosinase = experiment: Tyrosinase activity, Dopachrome formation from L-DOPA (OD 475 nm); format: biochemical; conditions: L-DOPA 8.0 mM, 800 U purified tyrosinase
Method: Tyrosinase activity was assessed by measuring the formation of Dopachrome from L-DOPA using absorbance at 475 nm wavelength.
The effects of PABA on tyrosinase activity were evaluated by measuring the formation of Dopachrome using a previously published method. (Heidcamp W (1995), supra.) L-DOPA (8.0 mM) was resuspended in sodium citrate buffer and 800 U of purified tyrosinase was added. Tyrosinase activity was measured by monitoring the formation of Dopachrome by measuring the optical density of the mixture at a wavelength of 475 nm. To assess the effects of PABA, the reactions were performed in the presence or absence of PABA. As a control, reactions were performed in the presence of adenosine instead of PABA.

B16F10 melanoma cells [8] = experiment: Chick embryo tumor growth assay, B16F10 melanoma, PABA and ionizing radiation; format: in vivo; conditions: tumor wet weight after 7 days
Method: The chick embryo tumor growth assay (Petitclerc E et al. (2000) J Biol Chem 275:8051-8061) was used to determine whether PABA enhances the effect of ionizing radiation to inhibit tumor growth in vivo. Four groups of chick embryos were studied. […] There were 5 to 10 chick embryos in each group.
The groups were created in the following manner. B16F10 melanoma cells were cultured for 14 days in growth medium in the absence of PABA or in the presence of PABA at a concentration of 100 μg/ml. The cells were harvested, washed, and resuspended in sterile PBS. The B16F10 melanoma cells were implanted on the CAMs of 10-day-old chick embryos, which were then incubated for at least 24 hours. The incubated chick embryos (some that were cultured in the absence of PABA and some that cultured in the presence of PABA) were treated with a single fraction dose of ionizing radiation (5.0 Gy). The embryos were incubated for 7 days and then the chick embryos of each group were sacrificed. The tumors were resected and tumor growth was assessed by measuring the wet weights of the resected tumors.

B16 melanoma cells [9] = experiment: Intracellular melanin, colour of cell pellets; format: cell-based; conditions: 0.1 mg/ml PABA, three weeks of culture; untreated pellets black
Method: To determine whether PABA inhibits the intracellular synthesis of melanin in B16 cells, cells were grown in DMEM in the presence or absence of 0.1 mg/ml PABA. Following three weeks of culture, cells were collected by centrifugation. Cell pellets from cells cultured in the absence of PABA appeared black, as normal, indicating the presence of melanin.

B16 melanoma cells [10] = experiment: Melanin content of culture medium by absorbance at 405 nm and 660 nm; format: cell-based; conditions: PABA 0.5 mg/day and 1.0 mg/day, DMEM
Method: Melanin levels were determined by absorbance at 405 nm wavelength (A) and absorbance at 660 nm wavelength (B). To further analyze the effects of PABA on B16 melanoma cell melanin secretion, PABA was added at concentrations of 0.5 mg/day and 1.0 mg/day to B16 melanoma cells cultured in DMEM. Samples of the culture medium were then analyzed for melanin content by measuring absorbance at wavelengths of 405 nm and 660 nm.

B16 melanoma cells [11] = experiment: Chick embryo tumor growth assay, B16 melanoma on CAM; format: in vivo; conditions: cells grown with 0.1 mg/ml PABA for 6 weeks, CAM of 10-day old chick embryos, 7 days
Method: The effect of PABA on solid tumor growth in vivo were evaluated using the chick embryo tumor growth assay. (Petitclerc E et al. (2000) J Biol Chem 275:8051-8061.) B16 melanoma cells were grown in the presence or absence of 0.1 mg/ml PABA for 6 weeks. Cells were harvested and 2.5×10^5 cells from each group were inoculated in the chorioallantoic membranes (CAM) of 10-day old chick embryos. The embryos were allowed to develop for a further seven days. At the end of the 7-day incubation period, the embryos were sacrificed and the tumors removed and wet weights determined. Tumors formed from B16 melanoma cells treated with PABA were, on average, 60% smaller than tumors derived from untreated B16 melanoma cells (FIG. 4).

B16 melanoma cells [12] = experiment: B16 melanoma cell proliferation with PABA and/or Taxol, direct cell counts; format: cell-based; conditions: 10.0 μM paclitaxel and/or 0.1 mg/ml PABA, DMEM, 48-hour incubation
Method: as §1
The ability of PABA to enhance the anti-proliferative effect of the chemotherapeutic agent, Taxol, was tested in B16 melanoma cells. […] Cell proliferation was monitored by direct cell counts over a 48-hour incubation period.

transplantable melanoma = conditions: hamsters; Zbytniewski et al. 1977; cited from earlier work

With Nc1ccc(C(=O)O)cc1 [PABA, para-Aminobenzoic acid] the “colour of culture medium (accumulation of secreted melanin)” value (B16 melanoma cells [1]) was “remained red”, the “inhibition of tumor growth as compared to control” value (B16F10 melanoma cells [2]; PABA 50 mg/kg i.p. daily plus 3 fractions of 3 Gy (9 Gy), P<0.002) was “about 95%” and the “effect on tumor growth as compared to control” value (B16F10 melanoma cells [2]; PABA alone 50 mg/kg i.p. daily, P>0.100) was “minimal effect on tumor growth”. For the same compound, the “cell proliferation, PABA in combination with radiation” value [3] was “essentially completely inhibited the proliferation”, the “number of metastatic lung tumor lesions” value (B16 melanoma cells [4]) was “time dependent inhibition of B16 melanoma metastasis” and the “cell proliferation after radiation, PABA vs no PABA” value (B16 melanoma cells [5]) was “increased the anti-proliferative and cytotoxic effects”. The “tumor size (wet weight) vs tumors from untreated LLC cells” value [6] was “significantly larger”, the cell proliferation [7] was “increased the proliferation of LLC cells” and the “tyrosinase activity (Dopachrome formation)” value (tyrosinase) was “dose dependent inhibition of Dopachrome formation”. For the same compound, the “inhibition of tumor growth as compared to the control group” value (B16F10 melanoma cells [8]; PABA 100 μg/ml plus single fraction ionizing radiation 5.0 Gy) was “about 90%”, the “inhibition of tumor growth as compared to the control group” value (B16F10 melanoma cells [8]; PABA alone, cells cultured 14 days with 100 μg/ml PABA) was “about 75%” and the “colour of cell pellets (melanin accumulation)” value (B16 melanoma cells [9]) was “much lighter in color”. The “melanin secretion (absorbance of medium at 405 nm and 660 nm)” value (B16 melanoma cells [10]) was “time dependent and concentration dependent inhibition of melanin secretion” and the “tumor size (wet weight) reduction vs tumors from untreated cells” value (B16 melanoma cells [11]) was 60%.

With CC(=O)O[C@H]1C(=O)[C@@]2(C)[C@H]([C@H](OC(=O)c3ccccc3)[C@]3(O)C[C@H](OC(=O)[C@H](O)[C@@H](NC(=O)c4ccccc4)c4ccccc4)C(C)=C1C3(C)C)[C@]1(OC(C)=O)CO[C@@H]1C[C@@H]2O [Paclitaxel, paclitaxel] the cell proliferation (B16 melanoma cells [12]) was “significantly inhibited B16 melanoma cell proliferation”.

In the case of NCc1ccc(C(=O)O)cc1 [PAMBA, para-Aminomethylbenzoic acid], the “invasiveness of transplantable melanoma metastases” value (transplantable melanoma) is given as “reducing the invasiveness of transplantable melanoma metastases in hamsters”.
